{
  "source": "patent US6348445B1",
  "about": "“Biologically active peptides with reduced toxicity in animals and a method for preparing same” (priority 1992, dated 2002)",
  "key": {"[1]": {"experiment": "MTD and LD50, single intravenous administration", "format": "in vivo, mice", "description": "Determinations of a maximal tolerated dose (MTD) of a single intravenous (i.v.) administration or intraperitoneal (i.p.) administration of MSI-344 or MSI-1857 in 100 CD-1®BR mice were done. The MTD of a single intravenous (i.v.) administration was 10 mg/kg for MSI-344 and 60 mg/kg for MSI-1857. The MTD of a single intraperitoneal (i.p.) administration was less than 20 mg/kg for MSI-344 and between 50 and 100 mg/kg for MSI-1857.\nTo determine estimates of MTDs and LD50s of MSI-344 and MSI-1857 administered intravenously or intraperitoneally as a single bolus in mice.\nA 5 mg/mL solution of MSI-344 was made in saline (0.9% sodium chloride injection USP, Abbott, North Chicago, Ill.) corrected for peptide content. Solutions of MSI-344 at concentrations of 4, 3, 2, 1.5, 1, and 0.5 mg/mL were made by diluting the 5 mg/mL solution using saline as diluent. (Errors were made in solution preparation of the 4, 3, and 2 mg/mL solutions and results from groups with animals doses with these solutions, i.e. groups 12, 13, and 14, were eliminated from study analysis). A 20 mg/mL solution of MSI-1857 was made in saline. Solutions of MSI-1857 at concentrations of 15, 10, 8, 6, and 5 mg/mL were made by diluting the 20 mg/mL solution using saline as diluent.\nAnother 5 mg/mL solution of MSI-344 was made in saline corrected for peptide content. Solutions of 4, 3 and 2 mg/mL were made by diluting the 5 mg/mL solution using saline as diluent. A 15 mg/mL solution of MSI-1857 in saline was made corrected for peptide content. A 10 mg/mL solution was made by diluting the 15 mg/mL solution with saline.\nMice (four mice per dose group) were intravenously or intraperitoneally administered a single bolus of MSI-344 or MSI-1857 using an injection volume of 10 mL/kg of the appropriate solution concentration. If the first two mice in a group died immediately (within 10 secs) after administration of a dose then no other mice injected with this dose of this compound (for ethical reasons). Survival was monitored daily for at least eight days post-administration. Study designs are presented in Tables IX and X. Toxicity Study # 262 was a supplement to Toxicity Study #261."}, "[2]": {"experiment": "MTD of repeat-dose intraperitoneal administration", "format": "in vivo, SCID mice", "details": "for MTD at 504 h: male, SCID (Fox Chase C.B-17/IcrTac-scidfDF), mouse, in vivo, ip", "description": "Determinations of a maximal tolerated dose (MTD) of repeat-dose intraperitoneal (i.p.) administration of MSI-344 or MSI-1857 in 60 SCID mice were done. Mice were injected with various doses of MSI-344 or MSI-1857 twice or thrice per week. Survival and body weight were monitored. On a twice per week dosing schedule, the MTDs of MSI-344 and MSI-1857 were 12 and 134 mg/kg/week, respectively. […] On a thrice per week dosing schedule, no deaths occurred in any groups, with high dose groups of MSI-344 and MSI-1857 receiving 90 mg/kg/week and […], respectively. A transient body weight loss was seen after initial dosing in most MSI-344 and MSI-1857 groups. No body weight loss greater than 6% occurred in any group on the thrice per week dosing schedule.\nTo determine estimates of MTDs of MSI-344 and MSI-1857 when administered intraperitoneally on repeat-dose regimens in SCID mice. The selection of SCID mice was based on the future plans of using this strain as host for xenograft human tumor efficacy models, and a pre-requisite for determining MTD for chronic administration that may be used during the efficacy model.\nSCID mice are immunocompromised and therefore they were housed and handled in sterile environments. They had access to sterile water and sterilized chow ad lib.\nA 1 mg/mL solution of MSI-344 was made in saline (0.9% sodium chloride injection USP, Abbott, North Chicago, Ill.) corrected for peptide content. Solutions of MSI-344 at concentrations of 0.6, 0.3, and 0.1 mg/mL were made by diluting the 1 mg/mL solution using saline as diluent. A 10 mg/mL solution of MSI-1857 was made in saline.\nSolutions of MSI-1857 at concentrations of 6.7, 3.3, 3, 2, and 1 mg/mL were made by diluting the 10 mg/mL solution using saline as diluent.\nMice (four mice per dose group) were intraperitoneally administered MSI-344 or MSI-1857 using an injection volume of 10 mL/kg of the appropriate solution concentration on a twice per week (Groups 1 through 7) or thrice per week (Groups 8 through 15) dosing schedule every week for 20 weeks. Survival was monitored daily and body weights were recorded three times per week An interim analysis was performed at 3 weeks and the results of this interim analysis is presented in the present report."}, "[3]": {"details": "Tox Study #261 group 2, 20 mg/kg IV, 2 injected"}, "[4]": {"details": "Tox Study #261 group 3, 15 mg/kg IV, 2 injected"}, "[5]": {"details": "Tox Study #261 group 4, 10 mg/kg IV, 4 injected"}, "[6]": {"details": "Tox Study #261 group 5, 5 mg/kg IV, 4 injected"}},
  "note": "Where two headings read alike, the source gives them in different places. Where no end group is shown, it is not given here.",
  "data": [
    {"sequence": "GIGKFLKKAKKFGKAFVKILKK [MSI-344]", "values": [
      {"measurement": "No. of Survivors Day 1", "setting": "[1]; [3]", "result": 0},
      {"measurement": "No. of Survivors Day 2", "setting": "[1]; [3]", "result": 0},
      {"measurement": "No. of Survivors Day 3", "setting": "[1]; [3]", "result": 0},
      {"measurement": "No. of Survivors Day 4", "setting": "[1]; [3]", "result": 0},
      {"measurement": "No. of Survivors Day 5", "setting": "[1]; [3]", "result": 0},
      {"measurement": "No. of Survivors Day 6", "setting": "[1]; [3]", "result": 0},
      {"measurement": "No. of Survivors Day 7", "setting": "[1]; [3]", "result": 0},
      {"measurement": "No. of Survivors Day 8", "setting": "[1]; [3]", "result": 0},
      {"measurement": "No. of Survivors Day 1", "setting": "[1]; [4]", "result": 0},
      {"measurement": "No. of Survivors Day 2", "setting": "[1]; [4]", "result": 0},
      {"measurement": "No. of Survivors Day 3", "setting": "[1]; [4]", "result": 0},
      {"measurement": "No. of Survivors Day 4", "setting": "[1]; [4]", "result": 0},
      {"measurement": "No. of Survivors Day 5", "setting": "[1]; [4]", "result": 0},
      {"measurement": "No. of Survivors Day 6", "setting": "[1]; [4]", "result": 0},
      {"measurement": "No. of Survivors Day 7", "setting": "[1]; [4]", "result": 0},
      {"measurement": "No. of Survivors Day 8", "setting": "[1]; [4]", "result": 0},
      {"measurement": "No. of Survivors Day 1", "setting": "[1]; [5]", "result": 4},
      {"measurement": "No. of Survivors Day 2", "setting": "[1]; [5]", "result": 4},
      {"measurement": "No. of Survivors Day 3", "setting": "[1]; [5]", "result": 4},
      {"measurement": "No. of Survivors Day 4", "setting": "[1]; [5]", "result": 4},
      {"measurement": "No. of Survivors Day 5", "setting": "[1]; [5]", "result": 4},
      {"measurement": "No. of Survivors Day 6", "setting": "[1]; [5]", "result": 4},
      {"measurement": "No. of Survivors Day 7", "setting": "[1]; [5]", "result": 4},
      {"measurement": "No. of Survivors Day 8", "setting": "[1]; [5]", "result": 4},
      {"measurement": "No. of Survivors Day 1", "setting": "[1]; [6]", "result": 4},
      {"measurement": "No. of Survivors Day 2", "setting": "[1]; [6]", "result": 4},
      {"measurement": "No. of Survivors Day 3", "setting": "[1]; [6]", "result": 4},
      {"measurement": "No. of Survivors Day 4", "setting": "[1]; [6]", "result": 4},
      {"measurement": "No. of Survivors Day 5", "setting": "[1]; [6]", "result": 4},
      {"measurement": "No. of Survivors Day 6", "setting": "[1]; [6]", "result": 4},
      {"measurement": "No. of Survivors Day 7", "setting": "[1]; [6]", "result": 4},
      {"measurement": "No. of Survivors Day 8", "setting": "[1]; [6]", "result": 4},
      {"measurement": "LD50", "setting": "[1]; mouse, in vivo, iv, CD-1 mice, estimated from dose response curves", "result": 12.5, "unit": "mg/kg"},
      {"measurement": "MTD", "setting": "[1]; mouse, in vivo, iv, CD-1 mice, read-out: MTD of a single intravenous (i.v.) administration", "result": 10, "unit": "mg/kg"},
      {"measurement": "effect of initial dosings on body weight", "setting": "[2]; all surviving groups except the low dose group on the thrice-per-week schedule", "result": "dose-dependent transient body weight loss"},
      {"measurement": "MTD, thrice per week dosing schedule", "setting": "[2]; i.p., SCID mice, interim analysis at 3 weeks", "result": "greater than or equal to 18 mg/kg/week"},
      {"measurement": "MTD at 504 h", "setting": "[2]; SCID mice, interim analysis at 3 weeks, read-out: MTD, thrice per week dosing schedule", "result": "≥ 2.57", "unit": "mg/kg/day"},
      {"measurement": "MTD at 504 h", "setting": "[2]; SCID mice, interim analysis at 3 weeks, read-out: MTD, twice per week dosing schedule (converted)", "result": 1.71, "unit": "mg/kg/day"}
    ]}
  ]
}
